Measurements taken from PubChem BioAssay AID1918954 (Molecular Pharmacology Branch, DTP, NCI, 2023).

Test system: MDA-MB-468 complex spheroids with HUVEC/MSC, viability
Assay: Anticancer human tumor MDA-MB-468 cell line growth inhibition;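 further: spheroids exposed to agents for seven days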;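 on viability, T/C: 100% = DMSO vehicle control viability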
Conditions: for IC50: curve of first compound; for viability, T/C: stronger effect = lower value
How it was run: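 Drug combinations with the LSD1 inhibitor iadademstat tested on tumor cells co-cultured as spheroids with endothelial cells and mesenchymal stem cells. Concentrations descended in half-log increments from clinical Cmax or 10 microM.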

[1] = second compound 0.1 µM, first compound 0.0316 µM
[2] = second compound 0.1 µM, first compound 0.1 µM
[3] = second compound 0.1 µM, first compound 0.316 µM
[4] = second compound 0.1 µM, first compound 1 µM
[5] = second compound 0.1 µM, first compound 3.16 µM
[6] = second compound 0.1 µM, first compound 10 µM
[7] = second compound 0.316 µM, first compound 0.0316 µM
[8] = second compound 0.316 µM, first compound 0.1 µM
[9] = second compound 0.316 µM, first compound 0.316 µM
[10] = second compound 0.316 µM, first compound 1 µM
[11] = second compound 0.316 µM, first compound 3.16 µM
[12] = second compound 0.316 µM, first compound 10 µM
[13] = second compound 1 µM, first compound 0.0316 µM
[14] = second compound 1 µM, first compound 0.1 µM
[15] = second compound 1 µM, first compound 0.316 µM
[16] = second compound 1 µM, first compound 1 µM
[17] = second compound 1 µM, first compound 3.16 µM
[18] = second compound 1 µM, first compound 10 µM
[19] = second compound 3.16 µM, first compound 0.0316 µM
[20] = second compound 3.16 µM, first compound 0.1 µM
[21] = second compound 3.16 µM, first compound 0.316 µM
[22] = second compound 3.16 µM, first compound 1 µM
[23] = second compound 3.16 µM, first compound 3.16 µM
[24] = second compound 3.16 µM, first compound 10 µM
[25] = second compound 10 µM, first compound 0.0316 µM
[26] = second compound 10 µM, first compound 0.1 µM
[27] = second compound 10 µM, first compound 0.316 µM
[28] = second compound 10 µM, first compound 1 µM
[29] = second compound 10 µM, first compound 3.16 µM
[30] = second compound 10 µM, first compound 10 µM
[31] = second compound 0.1 µM, first compound 0.00316 µM
[32] = second compound 0.1 µM, first compound 0.01 µM
[33] = second compound 0.316 µM, first compound 0.00316 µM
[34] = second compound 0.316 µM, first compound 0.01 µM
[35] = second compound 1 µM, first compound 0.00316 µM
[36] = second compound 1 µM, first compound 0.01 µM
[37] = second compound 3.16 µM, first compound 0.00316 µM
[38] = second compound 3.16 µM, first compound 0.01 µM
[39] = second compound 10 µM, first compound 0.00316 µM
[40] = second compound 10 µM, first compound 0.01 µM

| Structure (SMILES) | IC50 (second compound 0.1 µM) | IC50 (second compound 0.316 µM) | IC50 (second compound 1 µM) | IC50 (second compound 3.16 µM) | IC50 (second compound 10 µM) | viability, T/C [1] | viability, T/C [2] | viability, T/C [3] | viability, T/C [4] | viability, T/C [7] | viability, T/C [8] | viability, T/C [9] | viability, T/C [10] | viability, T/C [13] | viability, T/C [14] | viability, T/C [15] | viability, T/C [16] | viability, T/C [19] | viability, T/C [20] | viability, T/C [21] | further results |
| --- | --- | --- | --- | --- | --- | --- | --- | --- | --- | --- | --- | --- | --- | --- | --- | --- | --- | --- | --- | --- | --- |
| CC(C)c1c(-c2ccccc2)nc2c(C#N)c[nH]n2c1=O + NC1CCC(NC2CC2c2ccccc2)CC1 | > 10 µM | > 10 µM | > 10 µM | > 10 µM | > 10 µM | 96.1% | 109% | 109% | 108% | 99.2% | 101% | 84.3% | 99.5% | 102% | 103% | 96.3% | 102% | 82.2% | 102% | 77.7% | viability, T/C [5]: 105%; viability, T/C [6]: 85.4%; viability, T/C [11]: 102%; viability, T/C [12]: 99.5%; viability, T/C [17]: 101%; viability, T/C [18]: 85.8%; viability, T/C [22]: 95.4%; viability, T/C [23]: 50.7%; viability, T/C [24]: 62.5%; viability, T/C [25]: 74%; viability, T/C [26]: 66.7%; viability, T/C [27]: 70.2%; viability, T/C [28]: 57.2%; viability, T/C [29]: 66%; viability, T/C [30]: 70.4% |
| CC1COCCN1c1cc(-c2ccnn2C)c2ccnc(-c3ccn[nH]3)c2n1 (stereo not given) + NC1CCC(NC2CC2c2ccccc2)CC1 | 0.0152 µM | 0.0162 µM | 0.016 µM | 0.0122 µM | 0.00461 µM | 42.3% | 22.9% | 15.6% | 11.2% | 38.2% | 23% | 16.5% | 13.8% | 37.3% | 23.2% | 16.4% | 9.5% | 38.9% | 27.6% | 18.4% | viability, T/C [31]: 81.7%; viability, T/C [32]: 54.2%; viability, T/C [33]: 68.7%; viability, T/C [34]: 58.5%; viability, T/C [35]: 72.8%; viability, T/C [36]: 59%; viability, T/C [37]: 60.4%; viability, T/C [38]: 52.7%; viability, T/C [22]: 14.9%; viability, T/C [39]: 52.9%; viability, T/C [40]: 44%; viability, T/C [25]: 30.1%; viability, T/C [26]: 19%; viability, T/C [27]: 17.4%; viability, T/C [28]: 13.4% |
| COc1ccc([C@@H](O)c2cc(-c3ncnc4cc(N5CCOCC5)ccc34)c(F)cc2Cl)nn1 + NC1CCC(NC2CC2c2ccccc2)CC1 | 1.07 µM | 1.16 µM | 0.817 µM | 0.832 µM | 1.34 µM | 97.8% | 83.5% | 68% | 50% | 101% | 83.7% | 71.7% | 52.3% | 90.5% | 86.9% | 58.3% | 45.9% | 100% | 64.9% | 61.7% | viability, T/C [5]: 35%; viability, T/C [6]: 12.8%; viability, T/C [11]: 33.6%; viability, T/C [12]: 13.1%; viability, T/C [17]: 33.9%; viability, T/C [18]: 12.5%; viability, T/C [22]: 55.4%; viability, T/C [23]: 33.2%; viability, T/C [24]: 15.6%; viability, T/C [25]: 51.3%; viability, T/C [26]: 58.3%; viability, T/C [27]: 57.5%; viability, T/C [28]: 55%; viability, T/C [29]: 35.2%; viability, T/C [30]: 12.7% |
| O=C(C=Cn1cnc(-c2cc(C(F)(F)F)cc(C(F)(F)F)c2)n1)NNc1cnccn1 + NC1CCC(NC2CC2c2ccccc2)CC1 | < 0.00316 µM | < 0.00316 µM | < 0.00316 µM | < 0.00316 µM | < 0.00316 µM | 11.8% | 3.32% | 2.51% | 1.85% | 9.03% | 2.83% | 7.44% | 2.14% | 10.6% | 3.06% | 2.61% | 6.02% | 12.4% | 3.59% | 6.05% | viability, T/C [31]: 45.1%; viability, T/C [32]: 29.7%; viability, T/C [33]: 38.9%; viability, T/C [34]: 26.9%; viability, T/C [35]: 37.4%; viability, T/C [36]: 32%; viability, T/C [37]: 38.8%; viability, T/C [38]: 31%; viability, T/C [22]: 5.81%; viability, T/C [39]: 35.4%; viability, T/C [40]: 30.1%; viability, T/C [25]: 12.3%; viability, T/C [26]: 4.27%; viability, T/C [27]: 8.47%; viability, T/C [28]: 2.53% |
